Measurements: US12371454B2, “Cyclic peptide compound having Kras inhibitory action” (priority 2019, dated 2025)
Starred links: 1 amine or outer side, 2 acyl side, 3 side chain; linkers in the order of their positions; H or OH if unused. Positions of bridges follow the written chain, without caps; N, C: chain ends. Non-standard residues stand in square brackets, D forms with d. Residues, ends and D or L forms follow the SMILES beside them. *: point of attachment. hPhe(3-Cl-4-CF3) = N[C@@H](CCc1ccc(C(F)(F)F)c(Cl)c1)C(=O)O; X60 = CC(C)Oc1cc(CC[C@H](N[*:1])C(=O)[*:2])cc(Cl)c1Cl; X68 = O=C([C@H](CCc1ccc(OC(F)F)c(F)c1)N[*:1])[*:2]; X34 = O=C([C@H](CCc1ccc(C(F)(F)F)nc1)N[*:1])[*:2]; X37 = O=C([C@H](CCc1ccc(C(F)F)c(F)c1)N[*:1])[*:2]; X85 = O=C([C@@H]1C[C@@H](n2ccnn2)CN1[*:1])[*:2]; X69 = O=C([C@@H]1C[C@H](n2ccnn2)CN1[*:1])[*:2]; X9 = O=C([C@H](CCc1ccc2cccnc2c1)N[*:1])[*:2]; X72 = COc1ccc(CC[C@H](N[*:1])C(=O)[*:2])cn1; NMeAla(cPent) = CN[C@@H](CC1CCCC1)C(=O)O; NMeGly(cPent) = CN[C@H](C(=O)O)C1CCCC1; NMeCha = CN[C@@H](CC1CCCCC1)C(=O)O; cisHyp = O=C(O)[C@@H]1C[C@H](O)CN1; Hyp = O=C(O)[C@@H]1C[C@@H](O)CN1; NMeChg = CN[C@H](C(=O)O)C1CCCCC1; NMeD = CN[C@@H](CC(=O)O)C(=O)O; NMeL = CN[C@@H](CC(C)C)C(=O)O; NMeV = CN[C@H](C(=O)O)C(C)C; Azetidin(1-yl) = C1CN(*)C1; NMeA = CN[C@@H](C)C(=O)O; Piperidide = C1CCN(*)CC1; Pyrrolidide = C1CCN(*)C1; Ac5c = NC1(C(=O)O)CCCC1; Aze = O=C(O)[C@@H]1CCN1; Ethyl(2,2-F2) = FC(F)C*; Ethyl(2-OH) = OCC*; X24 = c1cncc(C*)c1; Sar = CNCC(=O)O

Each compound was assayed on Human pancreatic cancer cell line AsPC-1 (assay: Measurement of AsPC-1 cell growth inhibition (AsPC-1 CGI)). Conditions: 96 h.
Assay type: cell-based
Summary of the method: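 AsPC-1 cells in 15% FBS RPMI-1640 were exposed to test compound for 96 hours at 37° C, with CellTiter-Glo as endpoint.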
For CC[C@H](C)[C@@H]1NC(=O)[C@H](CC(C)C)N(C)C(=O)C[C@@H](C(=O)N2CCCCC2)N(C)C(=O)[C@H](C2CCCC2)N(C)C(=O)C2(CCCC2)NC(=O)[C@@H]2CCCN2C(=O)[C@H](CCc2ccc(OC(F)F)c(F)c2)NC(=O)CN(C)C(=O)[C@H](CC2CCCCC2)N(C)C(=O)[C@@H]2CCN2C(=O)[C@H](C)N(C)C1=O [Compound 2076] ([NMeL]I[NMeA][Aze][NMeCha][Sar][X68]P[Ac5c][NMeGly(cPent)][NMeD]-Piperidide; lactam N-11), the IC50 was 0.05 to 0.1 µM. In the case of CC[C@H](C)[C@@H]1NC(=O)[C@H](CC(C)C)N(C)C(=O)C[C@@H](C(=O)N2CCCCC2)N(C)C(=O)[C@H](C2CCCC2)N(C)C(=O)C2(CCCC2)NC(=O)[C@@H]2CCCN2C(=O)[C@H](CCc2ccc3cccnc3c2)NC(=O)CN(C)C(=O)[C@H](CC2CCCCC2)N(C)C(=O)[C@@H]2CCN2C(=O)[C@H](C)N(C)C1=O [Compound 2077] ([NMeL]I[NMeA][Aze][NMeCha][Sar][X9]P[Ac5c][NMeGly(cPent)][NMeD]-Piperidide; lactam N-11), the IC50 is reported as 0.1 to 0.5 µM. For CC[C@H](C)[C@@H]1NC(=O)[C@H](CC(C)C)N(C)C(=O)C[C@@H](C(=O)N2CCCCC2)N(C)C(=O)[C@H](C2CCCC2)N(C)C(=O)C2(CCCC2)NC(=O)[C@@H]2CCCN2C(=O)[C@H](CCc2ccc(C(F)(F)F)nc2)NC(=O)CN(C)C(=O)[C@H](CC2CCCCC2)N(C)C(=O)[C@@H]2CCN2C(=O)[C@H](C)N(C)C1=O [Compound 2078] ([NMeL]I[NMeA][Aze][NMeCha][Sar][X34]P[Ac5c][NMeGly(cPent)][NMeD]-Piperidide; lactam N-11), the IC50 was 0.1 to 0.5 µM. CC[C@H](C)[C@@H]1NC(=O)[C@H](C)N(C)C(=O)C[C@@H](C(=O)N2CCCCC2)N(C)C(=O)[C@H](C(C)C)N(C)C(=O)C2(CCCC2)NC(=O)[C@@H]2CCCN2C(=O)[C@H](CCc2cc(Cl)c(Cl)c(OC(C)C)c2)NC(=O)CN(C)C(=O)[C@H](CC2CCCCC2)N(C)C(=O)CN(C)C(=O)CN(C)C1=O [Compound 2079] ([NMeA]I[Sar][Sar][NMeCha][Sar][X60]P[Ac5c][NMeV][NMeD]-Piperidide; lactam N-11; C-terminus assumed) was tested, and the IC50 was > 0.5 µM. With CC[C@H](C)[C@@H]1NC(=O)[C@H](CC(C)C)N(C)C(=O)C[C@@H](C(=O)N2CCCCC2)N(C)C(=O)[C@H](C2CCCC2)N(C)C(=O)C2(CCCC2)NC(=O)[C@@H]2CCCN2C(=O)[C@H](CCc2ccc(OC)nc2)NC(=O)CN(C)C(=O)[C@H](CC2CCCCC2)N(C)C(=O)[C@@H]2CCN2C(=O)[C@H](C)N(C)C1=O [Compound 2084] ([NMeL]I[NMeA][Aze][NMeCha][Sar][X72]P[Ac5c][NMeGly(cPent)][NMeD]-Piperidide; lactam N-11) the IC50 was 0.1 to 0.5 µM. CC[C@H](C)[C@@H]1NC(=O)[C@H](CC(C)C)N(C)C(=O)C[C@@H](C(=O)N2CCCCC2)N(C)C(=O)[C@H](C2CCCC2)N(C)C(=O)C2(CCCC2)NC(=O)[C@@H]2CCCN2C(=O)[C@H](CCc2ccc(C(F)F)c(F)c2)NC(=O)CN(C)C(=O)[C@H](CC2CCCCC2)N(C)C(=O)[C@@H]2CCN2C(=O)[C@H](C)N(C)C1=O [Compound 2085, (5S,8S,11S,15S,18S,23aS,29S,35S,37aS)-8-((S)-sec-butyl)-35-(cyclohexylmethyl)-18-cyclopentyl-29-(4-(difluoromethyl)-3-fluorophenethyl)-11-isobutyl-5,6,12,16,19,33,36-heptamethyl-15-(piperidin-1-carbonyl)docosahydro-2H,4H-spiro[azeto[2,1-u]pyrrolo[2,1-i][1,4,7,10,13,16,19,22,25,28,31]undecazacyclotetratriacontyne-21,1′-cyclopentane]-4,7,10,13,17,20,23,28,31,34,37(14H,22H)-undecone] ([NMeL]I[NMeA][Aze][NMeCha][Sar][X37]P[Ac5c][NMeGly(cPent)][NMeD]-Piperidide; lactam N-11) was tested, and the IC50 was 0.1 to 0.5 µM. For CC[C@H](C)[C@@H]1NC(=O)[C@H](CC(C)C)N(C)C(=O)C[C@@H](C(=O)N(C)C)N(C)C(=O)[C@H](C2CCCC2)N(C)C(=O)C2(CCCC2)NC(=O)[C@H](CC(=O)N2CCCC2)N(C)C(=O)[C@H](CCc2ccc(C(F)(F)F)c(Cl)c2)NC(=O)CN(C)C(=O)[C@H](CC2CCCCC2)N(C)C(=O)[C@@H]2CCN2C(=O)[C@H](C)N(C)C1=O [Compound 2097] ([NMeL]I[NMeA][Aze][NMeCha][Sar][hPhe(3-Cl-4-CF3)][NMeD](Pyrrolidide)[Ac5c][NMeGly(cPent)][NMeD]-NMe2; lactam N-11), the IC50 was 0.1 to 0.5 µM. In the case of CC[C@H](C)[C@@H]1NC(=O)[C@H](CC(C)C)N(C)C(=O)C[C@@H](C(=O)N(C)C)N(C)C(=O)[C@H](C2CCCC2)N(C)C(=O)C2(CCCC2)NC(=O)[C@H](CC(=O)N2CCC2)N(C)C(=O)[C@H](CCc2ccc(C(F)(F)F)c(Cl)c2)NC(=O)CN(C)C(=O)[C@H](CC2CCCCC2)N(C)C(=O)[C@@H]2CCN2C(=O)[C@H](C)N(C)C1=O [Compound 2102] ([NMeL]I[NMeA][Aze][NMeCha][Sar][hPhe(3-Cl-4-CF3)][NMeD](Azetidin(1-yl))[Ac5c][NMeGly(cPent)][NMeD]-NMe2; lactam N-11), the IC50 is reported as 0.1 to 0.5 µM. For CC[C@H](C)[C@@H]1NC(=O)[C@H](CC(C)C)N(C)C(=O)C[C@@H](C(=O)N2CCCCC2)N(C)C(=O)[C@H](C(C)C)N(C)C(=O)C2(CCCC2)NC(=O)[C@@H]2C[C@@H](n3ccnn3)CN2C(=O)[C@H](CCc2ccc(C(F)(F)F)c(Cl)c2)NC(=O)CN(C)C(=O)[C@H](CC2CCCC2)N(C)C(=O)CN(C)C(=O)CN(C)C1=O [Compound 2113, (3S,9S,18S,21S,25S,28S,34S,36R)-3-[2-[3-chloro-4-(trifluoromethyl)phenyl]ethyl]-9-(cyclopentylmethyl)-21-isobutyl-28-isopropyl-7,10,13,16,22,26,29-heptamethyl-18-[(1S)-1-methylpropyl]-25-(piperidine-1-carbonyl)-36-(triazol-1-yl)spiro[1,4,7,10,13,16,19,22,26,29,32-undecazabicyclo[32.3.0]heptatriacontane-31,1′-cyclopentane]-2,5,8,11,14,17,20,23,27,30,33-undecone] ([NMeL]I[Sar][Sar][NMeAla(cPent)][Sar][hPhe(3-Cl-4-CF3)][X85][Ac5c][NMeV][NMeD]-Piperidide; lactam N-11), the IC50 was > 0.5 µM. For CC[C@H](C)[C@@H]1NC(=O)[C@H](CC(C)C)N(C)C(=O)C[C@@H](C(=O)N2CCCCC2)N(C)C(=O)[C@H](C(C)C)N(C)C(=O)C2(CCCC2)NC(=O)[C@@H]2C[C@H](n3ccnn3)CN2C(=O)[C@H](CCc2ccc(C(F)(F)F)c(Cl)c2)NC(=O)CN(C)C(=O)[C@H](CC2CCCC2)N(C)C(=O)CN(C)C(=O)CN(C)C1=O [Compound 2115, (3S,9S,18S,21S,25S,28S,34S,36S)-3-[2-[3-chloro-4-(trifluoromethyl)phenyl]ethyl]-9-(cyclopentylmethyl)-21-isobutyl-28-isopropyl-7,10,13,16,22,26,29-heptamethyl-18-[(1S)-1-methylpropyl]-25-(piperidine-1-carbonyl)-36-(triazol-1-yl)spiro[1,4,7,10,13,16,19,22,26,29,32-undecazabicyclo[32.3.0]heptatriacontane-31,1′-cyclopentane]-2,5,8,11,14,17,20,23,27,30,33-undecone] ([NMeL]I[Sar][Sar][NMeAla(cPent)][Sar][hPhe(3-Cl-4-CF3)][X69][Ac5c][NMeV][NMeD]-Piperidide; lactam N-11), the IC50 was > 0.5 µM. In the case of CC[C@H](C)[C@@H]1NC(=O)[C@H](CC(C)C)N(C)C(=O)C[C@@H](C(=O)N2CCCCC2)N(C)C(=O)[C@H](C2CCCCC2)N(C)C(=O)C2(CCCC2)NC(=O)[C@@H]2C[C@H](OCCO)CN2C(=O)[C@H](CCc2ccc(C(F)(F)F)c(Cl)c2)NC(=O)CN(C)C(=O)[C@H](CC2CCCCC2)N(C)C(=O)CN(C)C(=O)CN(C)C1=O [Compound 2117, (3S,9S,18S,21S,25S,28S,34S,36S)-3-[2-[3-chloro-4-(trifluoromethyl)phenyl]ethyl]-28-cyclohexyl-9-(cyclohexylmethyl)-36-(2-hydroxyethoxy)-21-isobutyl-7,10,13,16,22,26,29-heptamethyl-18-[(1S)-1-methylpropyl]-25-(piperidine-1-carbonyl)spiro[1,4,7,10,13,16,19,22,26,29,32-undecazabicyclo[32.3.0]heptatriacontane-31,1′-cyclopentane]-2,5,8,11,14,17,20,23,27,30,33-undecone] ([NMeL]I[Sar][Sar][NMeCha][Sar][hPhe(3-Cl-4-CF3)][cisHyp](Ethyl(2-OH))[Ac5c][NMeChg][NMeD]-Piperidide; lactam N-11), the IC50 is reported as 0.1 to 0.5 µM. CC[C@H](C)[C@@H]1NC(=O)[C@H](CC(C)C)N(C)C(=O)C[C@@H](C(=O)N2CCCCC2)N(C)C(=O)[C@H](C2CCCCC2)N(C)C(=O)C2(CCCC2)NC(=O)[C@@H]2C[C@@H](OCC(F)F)CN2C(=O)[C@H](CCc2ccc(C(F)(F)F)c(Cl)c2)NC(=O)CN(C)C(=O)[C@H](CC2CCCCC2)N(C)C(=O)CN(C)C(=O)CN(C)C1=O [Compound 2119] ([NMeL]I[Sar][Sar][NMeCha][Sar][hPhe(3-Cl-4-CF3)][Hyp](Ethyl(2,2-F2))[Ac5c][NMeChg][NMeD]-Piperidide; lactam N-11) was tested, and the IC50 was 0.02 to 0.05 µM. For CC[C@H](C)[C@@H]1NC(=O)[C@H](CC(C)C)N(C)C(=O)C[C@@H](C(=O)N2CCCCC2)N(C)C(=O)[C@H](C2CCCCC2)N(C)C(=O)C2(CCCC2)NC(=O)[C@@H]2C[C@H](OCc3cccnc3)CN2C(=O)[C@H](CCc2ccc(C(F)(F)F)c(Cl)c2)NC(=O)CN(C)C(=O)[C@H](CC2CCCCC2)N(C)C(=O)CN(C)C(=O)CN(C)C1=O [Compound 2120] ([NMeL]I[Sar][Sar][NMeCha][Sar][hPhe(3-Cl-4-CF3)][cisHyp](X24)[Ac5c][NMeChg][NMeD]-Piperidide; lactam N-11), the IC50 was 0.1 to 0.5 µM. In the case of CC[C@H](C)[C@@H]1NC(=O)[C@H](CC(C)C)N(C)C(=O)C[C@@H](C(=O)N2CCCCC2)N(C)C(=O)[C@H](C2CCCCC2)N(C)C(=O)C2(CCCC2)NC(=O)[C@@H]2C[C@@H](OCc3cccnc3)CN2C(=O)[C@H](CCc2ccc(C(F)(F)F)c(Cl)c2)NC(=O)CN(C)C(=O)[C@H](CC2CCCCC2)N(C)C(=O)CN(C)C(=O)CN(C)C1=O [Compound 2121] ([NMeL]I[Sar][Sar][NMeCha][Sar][hPhe(3-Cl-4-CF3)][Hyp](X24)[Ac5c][NMeChg][NMeD]-Piperidide; lactam N-11), the IC50 is reported as 0.05 to 0.1 µM.
